Values quoted from earlier work, collected in publication PMC3066546, “Development of modified nucleosides that have supremely high anti-HIV activity and low toxicity and prevent the emergence of resistant HIV mutants” (Proceedings of the Japan Academy. Series B, Physical and …, 2011).
Where two headings read alike, the source gives them in different places.

What was measured:
HIV-1wild = test system: HIV-1wild; set-up: method as in PMID 18487070; conditions: Table 7; read-out: Anti-HIV activity (MAGI assay, µg) HIV-1wild
HIV-1MDR = test system: HIV-1MDR; set-up: method as in PMID 18487070; conditions: Table 7; read-out: Anti-HIV activity (MAGI assay, µg) HIV-1MDR
HIV-1M184V = test system: HIV-1M184V; set-up: method as in PMID 18487070; conditions: Table 7; read-out: Anti-HIV activity (MAGI assay, µg) HIV-1M184V
HIV-1LAI = conditions: MTT assay, MT-4 cells
HIV = test system: HIV; set-up: method as in PMID 7764216; conditions: Table 1; for EC50: anti-HIV
[1] = cytotoxic concentration, Table 1
HXB2 (wild type HIV) = test system: HXB2 (wild type HIV); set-up: method as in PMID 11087576, PMID 11577734, PMID 15200030; conditions: MAGI assay
KH65R drug-resistant HIV = test system: KH65R drug-resistant HIV; set-up: method as in PMID 11087576, PMID 11577734, PMID 15200030; conditions: MAGI assay
L74V drug-resistant HIV = test system: L74V drug-resistant HIV; set-up: method as in PMID 11087576, PMID 11577734, PMID 15200030; conditions: MAGI assay
[2] = test system: 41/215 drug-resistant HIV; set-up: method as in PMID 11087576, PMID 11577734, PMID 15200030; conditions: MAGI assay
M184V drug-resistant HIV = test system: M184V drug-resistant HIV; set-up: method as in PMID 11087576, PMID 11577734, PMID 15200030; conditions: MAGI assay
[3] = test system: 41/69/ 125/SG drug-resistant HIV; set-up: method as in PMID 11087576, PMID 11577734, PMID 15200030; conditions: MAGI assay
[4] = test system: MDR (multidrug-resistant HIV); conditions: MAGI assay
M184I drug-resistant HIV = test system: M184I drug-resistant HIV; set-up: method as in PMID 11087576, PMID 11577734, PMID 15200030; conditions: MAGI assay
ICR mice = conditions: for Mortality (%): six-week-old ICR male mice

## C#C[C@@]1(CO)CC[C@H](n2cnc3c(N)nc(F)nc32)O1 [4′Edd2FA, 2′,3′-dideoxy-4′-C-ethynyl-2-fluoroadenosine]
HIV-1wild
  EC50: 0.94 µM
HIV-1MDR
  EC50: 8.7 µM
HIV-1M184V
  EC50: 97 µM

## CC[C@]1(CO)O[C@@H](n2cc(C)c(=O)[nH]c2=O)C[C@@H]1O [4′-C-ethylthymidine]
HIV-1LAI; Table 2
  EC50: > 400 µM

## C[C@@]1(CO)CC[C@H](n2ccc(N)nc2=O)O1 [C00003 Cy]
HIV
  SI (CC50/EC50): 1
  EC50: 27 µM
[1]
  CC50: 27 µM

## Nc1ccn([C@H]2C[C@H](O)[C@](CO)(CF)O2)c(=O)n1 [4′-C-fluoromethyl-2′-deoxycytidine]
HIV-1LAI; Table 2
  EC50: 0.0068 µM
MT-4 cells; Table 2
  CC50: 0.12 µM

## C#C[C@]1(CO)O[C@@H](n2cnc3c(N)nc(Cl)nc32)C[C@@H]1O [4′Ed2ClA, 2′-deoxy-4′-C-ethynyl-2-chloroadenosine]
HIV-1wild
  EC50: 0.0019 µM
HIV-1MDR
  EC50: 0.0084 µM
HIV-1M184V
  EC50: 0.01 µM

## C[C@@]1(CO)CC[C@H](n2cnc3c(N)ncnc32)O1 [C00003 Ad]
HIV
  SI (CC50/EC50): 13
  EC50: 30 µM
[1]
  CC50: 400 µM

## CCC[C@]1(CO)O[C@@H](n2cc(C)c(=O)[nH]c2=O)C[C@@H]1O [4′-C-propylthymidine]
HIV-1LAI; Table 2
  EC50: > 100 µM
MT-4 cells; Table 2
  CC50: > 100 µM

## O=c1[nH]cnc2c1ncn2[C@H]1CC[C@@H](CO)O1 [ddI, reference compound]
HXB2 (wild type HIV)
  EC50: 3.9 µM
KH65R drug-resistant HIV
  EC50: 12.7 µM
L74V drug-resistant HIV
  EC50: 19.5 µM
[2]
  EC50: 3.6 µM
M184V drug-resistant HIV
  EC50: 10.1 µM
[3]
  EC50: 12.2 µM
[4]
  EC50: 25 µM
Hela cells
  CC50: > 100 µM

## C#C[C@]1(CO)O[C@@H](n2ccc(N)nc2=O)C[C@@H]1O [L-4′-C-ethynyl-2′-deoxycytidine]
HIV-1LAI; Table 2
  EC50: > 400 µM

## N#C[C@]1(CO)O[C@@H](n2cnc3c(N)ncnc32)C[C@@H]1O [C00004 A]
HIV-1LAI; Table 3
  EC50: 0.051 µM
MT-4 cells; Table 3
  CC50: 12 µM

## C#C[C@]1(CO)O[C@@H](n2cnc3c(O)ncnc32)C[C@@H]1O [4′EdI, 2′-deoxy-4′-C-ethynylinosine]
HIV-1LAI; Table 3
  EC50: 0.15 µM
HXB2 (wild type HIV)
  EC50: 0.81 µM
KH65R drug-resistant HIV
  EC50: 0.25 µM
L74V drug-resistant HIV
  EC50: 0.61 µM
[2]
  EC50: 1.3 µM
M184V drug-resistant HIV
  EC50: 1.6 µM
M184I drug-resistant HIV
  EC50: 1.5 µM
[3]
  EC50: 2.2 µM
[4]
  EC50: 0.51 µM
MT-4 cells; Table 3
  CC50: 216 µM
Hela cells; Table 4, Hela cells
  CC50: > 200 µM
ICR mice; intraveneous administration, 1 mg/Kg
  Mortality (%): 0%
ICR mice; intraveneous administration, 3 mg/Kg
  Mortality (%): 0%
ICR mice; intraveneous administration, 10 mg/Kg
  Mortality (%): 0%
ICR mice; intraveneous administration, 100 mg/Kg
  Mortality (%): 0%
ICR mice; oral administration, 1 mg/Kg
  Mortality (%): 0%
ICR mice; oral administration, 3 mg/Kg
  Mortality (%): 0%
ICR mice; oral administration, 10 mg/Kg
  Mortality (%): 0%
ICR mice; oral administration, 100 mg/Kg
  Mortality (%): 0%
ICR mice; single dosage of 3–100 mg kg−1, both intravenous and oral
  survival of mice: All eight mice survived

## N#C[C@]1(CO)O[C@@H](n2cnc3c(N)nc(N)nc32)C[C@@H]1O [C00004 2AA]
HIV-1LAI; Table 3
  EC50: 0.00079 µM
MT-4 cells; Table 3
  CC50: 0.034 µM

## Cc1cn([C@H]2CC[C@@](C)(CO)O2)c(=O)[nH]c1=O [C00003 Th]
HIV
  SI (CC50/EC50): ∼1
  EC50: > 500 µM
[1]
  CC50: > 500 µM

## C#C[C@@]1(CO)C=C[C@H](n2cnc3c(N)nc(F)nc32)O1 [4′Ed42FA, 2′,3′-didehydrodideoxy-4′-C-ethynyl-2-fluoroadenosine]
HIV-1wild
  EC50: 0.8 µM
HIV-1MDR
  EC50: 0.15 µM
HIV-1M184V
  EC50: 1.8 µM

## N#C[C@]1(CO)O[C@@H](n2ccc(N)nc2=O)C[C@@H]1O [4′-C-cyano-2′-deoxycytidine]
HIV-1LAI; Table 2
  EC50: 0.0012 µM
MT-4 cells; Table 2
  CC50: 0.17 µM

## Nc1ccn([C@H]2CC[C@@H](CO)O2)c(=O)n1 [ddC, reference compound]
HXB2 (wild type HIV)
  EC50: 0.2 µM
KH65R drug-resistant HIV
  EC50: 3 µM
L74V drug-resistant HIV
  EC50: 1.5 µM
M184V drug-resistant HIV
  EC50: 2.2 µM
[3]
  EC50: 1.3 µM
[4]
  EC50: 5.5 µM
Hela cells
  CC50: > 100 µM

## Cc1cn([C@H]2C[C@H](O)[C@@](C#N)(CO)O2)c(=O)[nH]c1=O [4′-C-cyanothymidine]
HIV-1LAI; Table 2
  EC50: 0.002 µM
MT-4 cells; Table 2
  CC50: 1 µM

## Cc1cn([C@H]2C[C@H](O)[C@](CO)(CN=[N+]=[N-])O2)c(=O)[nH]c1=O [4′-C-azidomethylthymidine]
HIV-1LAI; Table 2
  EC50: 2.1 µM
MT-4 cells; Table 2
  CC50: 333 µM

## C[C@@]1(CO)C=C[C@H](n2ccc(N)nc2=O)O1 [C00002 Cy]
HIV
  EC50: 350 µM
[1]
  CC50: 350 µM

## Cc1cn([C@H]2C[C@H](O)C(CO)(CO)O2)c(=O)[nH]c1=O [4′-C-hydroxymethylthymidine]
HIV-1LAI; Table 2
  EC50: 7 µM
MT-4 cells; Table 2
  CC50: > 400 µM

## Cc1cn([C@H]2C=C[C@@H](CO)O2)c(=O)[nH]c1=O [d4T, 2′,3′-didehydro-3′-deoxythymidine, reference compound]
HIV
  SI (CC50/EC50): >120
  EC50: 4.1 µM
HIV-1wild
  EC50: 7.6 µM
HIV-1MDR
  EC50: 64 µM
HIV-1M184V
  EC50: 5.6 µM
[1]
  CC50: > 500 µM

## C[C@@]1(CO)C=C[C@H](n2cnc3c(N)ncnc32)O1 [C00002 Ad]
HIV
  SI (CC50/EC50): ∼1
  EC50: > 500 µM
[1]
  CC50: > 500 µM

## CO[C@]1(CO)O[C@@H](n2cc(C)c(=O)[nH]c2=O)C[C@@H]1O [4′-C-methoxythymidine]
HIV-1LAI; Table 2
  EC50: 8.49 µM
MT-4 cells; Table 2
  CC50: 200 µM

## C[C@]1(CO)O[C@@H](n2ccc(N)nc2=O)C[C@@H]1O [C00001 Cy, 4′-C-methyl-2′-deoxycytidine]
HIV
  SI (CC50/EC50): 1.8
  EC50: 0.072 µM
HIV-1LAI; Table 2
  EC50: 0.015 µM
HXB2 (wild type HIV)
  EC50: 0.0058 µM
KH65R drug-resistant HIV
  EC50: 0.0071 µM
L74V drug-resistant HIV
  EC50: 0.0062 µM
M184V drug-resistant HIV
  EC50: 0.2 µM
M184I drug-resistant HIV
  EC50: 0.74 µM
[4]
  EC50: 0.0033 µM
[1]
  CC50: 0.13 µM
MT-4 cells; Table 2
  CC50: 1 µM
Hela cells; Table 4, Hela cells
  CC50: > 200 µM

## N#C[C@]1(CO)O[C@@H](n2cnc3c(=O)[nH]c(N)nc32)C[C@@H]1O [C00004 G]
HIV-1LAI; Table 3
  EC50: 0.000188 µM
MT-4 cells; Table 3
  CC50: 0.034 µM

## Cc1cn([C@H]2C[C@H](O)[C@@](C)(CO)O2)c(=O)[nH]c1=O [C00001 Th, 4′-C-methylthymidine]
HIV
  EC50: 7.2 µM
HIV-1LAI; Table 2
  EC50: 7.2 µM
[1]
  CC50: 104 µM
MT-4 cells; Table 2
  CC50: 104 µM

## [N-]=[N+]=N[C@]1(CO)O[C@@H](n2ccc(N)nc2=O)C[C@@H]1O [4′-C-azido-2′-deoxycytidine]
HIV-1LAI; Table 2
  EC50: 0.004 µM
MT-4 cells; Table 2
  CC50: 0.21 µM

## C[C@]1(CO)O[C@@H](n2cnc3c(N)ncnc32)C[C@@H]1O [C00001 Ad, 4′-C-methyl-2′-deoxyadenosine]
HIV
  SI (CC50/EC50): 1.0
  EC50: 2.6 µM
HIV-1LAI; Table 2
  EC50: 2.6 µM
[1]
  CC50: 2.6 µM
MT-4 cells; Table 2
  CC50: 2.6 µM

## C#C[C@]1(CO)O[C@@H](n2cc(C)c(=O)[nH]c2=O)[C@@H](O)[C@@H]1O [4′-C-ethynylarabinofuranosylthymine]
HIV-1LAI; Table 2
  EC50: 119 µM
MT-4 cells
  CC50: > 400 µM

## C=C[C@]1(CO)O[C@@H](n2cc(C)c(=O)[nH]c2=O)C[C@@H]1O [4′-C-vinylthymidine]
HIV-1LAI; Table 2
  EC50: > 400 µM
MT-4 cells; Table 2
  CC50: > 400 µM

## Cc1cn([C@H]2C[C@H](O)[C@](CO)(N=[N+]=[N-])O2)c(=O)[nH]c1=O [4′-C-azidothymidine]
HIV-1LAI; Table 2
  EC50: 0.01 µM
MT-4 cells; Table 2
  CC50: 8 µM

## C#C[C@]1(CO)O[C@@H](n2cc(C)c(=O)[nH]c2=O)C[C@@H]1O [4′-C-ethynylthymidine]
HIV-1LAI; Table 2
  EC50: 0.83 µM
MT-4 cells; Table 2
  CC50: > 400 µM

## [N-]=[N+]=N[C@]1(CO)O[C@@H](n2cnc3c(N)ncnc32)C[C@@H]1O [4′-C-azido-2′-deoxyadenosine]
HIV-1LAI; Table 2
  EC50: 0.13 µM
MT-4 cells; Table 2
  CC50: 50 µM

## Cc1cn([C@H]2C=C[C@@](C)(CO)O2)c(=O)[nH]c1=O [C00002 Th]
HIV
  SI (CC50/EC50): 16
  EC50: 21 µM
[1]
  CC50: 330 µM

## N#C[C@]1(CO)O[C@@H](n2cnc3c(O)ncnc32)C[C@@H]1O [C00004 I]
HIV-1LAI; Table 3
  EC50: 0.051 µM
MT-4 cells; Table 3
  CC50: 23 µM
